Data taken from ChEMBL document CHEMBL5376011, “Discovery of Anti-Hypercholesterolemia Agents Targeting LXRα from Marine Microorganism-Derived Natural Products” (J Nat Prod, 2024).
Activity calls are given as the source filed them. The rule behind the calls is not given here.

What was measured:
[1] = tested on: Mus musculus; assay: Antihypercholesterolemic activity against high cholesterol diet fed LXRalpha knockout C57BL/6J mouse assessed as reduction in serum alanine aminotransferase level at 300 microg/kg, ip administered every 2 days for 15 days; format: functional, organism-based; settings: dose 300.0 µg/kg, time 15.0 day
[2] = tested on: Mus musculus; assay: Antihypercholesterolemic activity against high cholesterol diet fed LXRalpha knockout C57BL/6J mouse assessed as reduction in serum aspartate aminotransferase level at 300 microg/kg, ip administered every 2 days for 15 days; format: functional, organism-based; settings: dose 300.0 µg/kg, time 15.0 day
[3] = tested on: Mus musculus; assay: Antihypercholesterolemic activity against high cholesterol diet fed C57BL/6J mouse assessed as reduction in degree of hepatic steatosis at 300 microg/kg, ip administered every 2 days for 15 days by H&E staining based analysis; format: functional, organism-based; settings: dose 300.0 µg/kg, time 15.0 day
[4] = tested on: Mus musculus; assay: Antihypercholesterolemic activity against high cholesterol diet fed LXRalpha knockout C57BL/6J mouse assessed as reduction in serum total cholesterol level at 300 microg/kg, ip administered every 2 days for 15 days; format: functional, organism-based; settings: dose 300.0 µg/kg, time 15.0 day
[5] = tested on: Mus musculus; assay: Antihypercholesterolemic activity against high cholesterol diet fed C57BL/6J mouse assessed as reduction in SREBP1 protein level at 300 microg/kg, ip administered every 2 days for 15 days by Western blot analysis; format: functional, organism-based; settings: dose 300.0 µg/kg, time 15.0 day
[6] = tested on: Mus musculus; assay: Antihypercholesterolemic activity against high cholesterol diet fed LXRalpha knockout C57BL/6J mouse assessed as improvement in liver lipid droplet accumulation at 300 microg/kg, ip administered every 2 days for 15 days by Oil red staining based analysis; format: functional, organism-based; settings: dose 300.0 µg/kg, time 15.0 day
[7] = tested on: Mus musculus; assay: Antihypercholesterolemic activity against high cholesterol diet induced C57BL/6J mouse assessed as reduction in serum alanine aminotransferase level at 300 microg/kg, ip administered every 2 days for 15 days; format: functional, organism-based; settings: dose 300.0 µg/kg, time 15.0 day
[8] = tested on: Mus musculus; assay: Antihypercholesterolemic activity against high cholesterol diet fed C57BL/6J mouse assessed as reduction in FASN protein level at 300 microg/kg, ip administered every 2 days for 15 days by Western blot analysis; format: functional, organism-based; settings: dose 300.0 µg/kg, time 15.0 day
[9] = tested on: Mus musculus; assay: Antihypercholesterolemic activity against high cholesterol diet fed LXRalpha knockout C57BL/6J mouse assessed as upregulation in CYP7A1 protein level at 300 microg/kg, ip administered every 2 days for 15 days by Western blot analysis; format: functional, organism-based; settings: dose 300.0 µg/kg, time 15.0 day
[10] = tested on: HepG2; assay: Improvement of lipid metabolism in palmitic acid and oleic acid induced human HepG2 cell model of hepatic steatosis assessed as reduction in triglyceride level at 25 uM preincubated with palmitic acid and oleic acid for 48 hrs followed by compound addition and measured after 24 hrs; format: functional, cell-based
[11] = tested on: Mus musculus; assay: Antihypercholesterolemic activity against high cholesterol diet fed C57BL/6J mouse assessed as improvement in hepatocyte degeneration at 300 microg/kg, ip administered every 2 days for 15 days by H&E staining based analysis; format: functional, organism-based; settings: dose 300.0 µg/kg, time 15.0 day
[12] = tested on: Mus musculus; assay: Antihypercholesterolemic activity against high cholesterol diet fed LXRalpha knockout C57BL/6J mouse assessed as improvement in liver lipid droplet accumulation at 300 microg/kg, ip administered every 2 days for 15 days by H&E staining based analysis; format: functional, organism-based; settings: dose 300.0 µg/kg, time 15.0 day
[13] = tested on: Mus musculus; assay: Antihypercholesterolemic activity against high cholesterol diet fed LXRalpha knockout C57BL/6J mouse assessed as upregulation in ABCA1 protein level at 300 microg/kg, ip administered every 2 days for 15 days by Western blot analysis; format: functional, organism-based; settings: dose 300.0 µg/kg, time 15.0 day
[14] = target: T1, Oxysterols receptor LXR-alpha (Homo sapiens) (UniProt Q13133); assay: Agonist activity at LXRalpha in human HepG2 cells assessed as upregulation of ABCA1 protein expression level at 25 uM incubated for 24 hrs by Western blot analysis; format: cell-based; settings: filed as agonist
T1 sequence (whole entry): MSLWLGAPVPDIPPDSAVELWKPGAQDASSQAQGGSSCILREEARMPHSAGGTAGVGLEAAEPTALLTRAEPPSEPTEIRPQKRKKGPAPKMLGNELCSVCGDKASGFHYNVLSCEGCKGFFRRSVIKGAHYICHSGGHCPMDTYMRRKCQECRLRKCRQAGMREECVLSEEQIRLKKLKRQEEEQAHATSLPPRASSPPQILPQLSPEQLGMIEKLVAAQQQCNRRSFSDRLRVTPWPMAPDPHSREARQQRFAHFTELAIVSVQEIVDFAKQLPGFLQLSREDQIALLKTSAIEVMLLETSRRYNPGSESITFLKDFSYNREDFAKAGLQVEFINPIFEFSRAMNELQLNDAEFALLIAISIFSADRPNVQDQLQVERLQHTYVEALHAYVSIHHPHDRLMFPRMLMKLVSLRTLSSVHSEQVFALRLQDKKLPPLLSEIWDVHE

[15] = tested on: HepG2; assay: Effect on LXRbeta mRNA expression in human HepG2 cells at 25 uM incubated for 24 hrs by RT-qPCR analysis; format: functional, cell-based
[16] = target: T2, Oxysterols receptor LXR-alpha (Homo sapiens, UniProt Q13133); assay: Binding affinity to full length human LXRalpha assessed as dissociation constant by SPR analysis
T2 sequence (Q13133 whole entry): T1 sequence (whole entry)

[17] = tested on: Mus musculus; assay: Antihypercholesterolemic activity against high cholesterol diet fed LXRalpha knockout C57BL/6J mouse assessed as improvement in hepatic steatosis at 300 microg/kg, ip administered every 2 days for 15 days by Oil red staining based analysis; format: functional, organism-based; settings: dose 300.0 µg/kg, time 15.0 day
[18] = Cytotoxicity against human HepG2 cells assessed as reduction in cell viability incubated for 24 hrs by CCK8 assay; format: toxicity, cell-based
[19] = tested on: Mus musculus; assay: Antihypercholesterolemic activity against high cholesterol diet fed LXRalpha knockout C57BL/6J mouse assessed as reduction in serum triglycerides level at 300 microg/kg, ip administered every 2 days for 15 days; format: functional, organism-based; settings: dose 300.0 µg/kg, time 15.0 day
[20] = tested on: Mus musculus; assay: Antihypercholesterolemic activity against high cholesterol diet fed C57BL/6J mouse assessed as reduction of fine vacuoles in the cytoplasm at 300 microg/kg, ip administered every 2 days for 15 days by Oil red staining based analysis; format: functional, organism-based; settings: dose 300.0 µg/kg, time 15.0 day
[21] = target: T1, Oxysterols receptor LXR-alpha (Homo sapiens); assay: Agonist activity at LXRalpha in human HepG2 cells assessed as upregulation of ABCA1 mRNA expression by measuring fold change at 25 uM incubated for 24 hrs by RT-qPCR analysis; format: cell-based; settings: filed as agonist
[22] = tested on: Mus musculus; assay: Antihypercholesterolemic activity against high cholesterol diet fed LXRalpha knockout C57BL/6J mouse assessed as reduction in serum high density lipoprotein cholesterol level at 300 microg/kg, ip administered every 2 days for 15 days; format: functional, organism-based; settings: dose 300.0 µg/kg, time 15.0 day

**Q.** What does the source list for COc1ccc2c(C[C@@H]3NC(=O)[C@@H]4CCCN4C3=O)c(CC=C(C)C)[nH]c2c1 [TRYPROSTATIN A]?
**A.** Activity [1]: inactive; Activity [2]: inactive; Activity [3]: Active; Activity [4]: inactive; Activity [5]: Active; Activity [6]: Active; Activity [7]: Active; Activity [8]: Active; Activity [9]: inactive; Activity [10]: Active; Activity [11]: Active; Activity [12]: Active; Activity [13]: inactive; Activity [14]: Active; Activity [15]: inactive; Kd [16]: 10.2 nM; Activity [17]: Active; IC50 at 24 h [18]: > 50000 nM; Activity [19]: inactive; Activity [20]: Active; fold change (FC) [21]: 2.05; Activity [22]: inactive
